From patent publication US20190298694A1, “Use Of Carbamate Compound For Preventing Or Treating Fibromyalgia Or Functional Syndrome Associated With Fibromyalgia” (SK BIOPHARMACEUTICALS CO., LTD., priority 2016, published 2019)
Marks after values point to notes of the source that are not given here.

Tested on: mechanical allodynia induced by injection of acidic saline into gastrocnemius muscle
Assay: Pain suppression in animal model of fibromyalgia: mechanical allodynia induced by repeated intramuscular acidic saline, paw withdrawal threshold by von Frey filaments (up-down method)
Assay type: in vivo, rats (Sprague-Dawley)
Conditions: for Area under the curve of the paw withdrawal threshold curve over time, compared with the vehicle group: ip
Text: Musculoskeletal pain is a major feature of fibromyalgia. A model that is linked to musculoskeletal pain in humans has been developed by Sluka K A, which model is characterized by mechanical sensitization induced by repeated intramuscular injections of acidic saline.
This experiment evaluated the effect of the test compound on persistent mechanical allodynia, which may well represent muscle pain or tenderness observed in patients with fibromyalgia. Repeated injections of acidic saline into the gastrocnemius muscle of rats lead to mechanical allodynia due to central sensitization (Sluka K A et. al., Unilateral intramuscular injections of acidic saline produce a bilateral, long-lasting hyperalgesia, Muscle Nerve. 2001).
Male rats (Sprague-Dawley, 150-200 g, 6 weeks old, Orient Bio Co., Ltd.) were purchased and subjected to acclimatization for more than 1 week in an animal chamber. The experimental animals were maintained under conditions of light-and-darkness cycle of 12 hours, a temperature of 22 to 25° C., a relative humidity of 40 to 60%, and free access to water and food.
Mechanical allodynia was assessed by measuring the paw withdrawal threshold of the rat right hind paw using Dixon's “up-down method” (Chaplan et. al., Quantitative assessment of tactile allodynia in the rat paw. J Neurosci Methods, 1994; Dixon W J, Efficient analysis of experimental observations, Annu Rev Pharmacol Toxicol. 1980). First, the rats were placed in an acrylic box (13×25×13 cm3) located on a wire mesh installed at a height of about 35 cm from the floor and stabilized for more than 20 minutes. […] von Frey filaments with various bending forces (0.2, 0.4, 0.6, 1.0, 2.0, 4.0, 6.0, 8.0, 15.0 g) were used. Starting with a filament of 2.0 g, bending force was applied perpendicular to the sole surface. In the case of no withdrawal (avoidance response), the next higher bending force filament was applied, or, in the case of withdrawal (avoidance response), the next lower bending force filament was applied. In order to obtain at least six (6) response results, the application of filaments was proceeded four (4) more times after showing the change in withdrawal.
The baseline withdrawal (avoidance response) threshold for mechanical stimulation on the right hind paw of rats was measured. 100 μl of preservative-free acidic saline (0.9% sodium chloride, pH 4.0) was intramuscularly injected into the right gastrocnemius muscle of the rats. After 5 days, the acidic saline was intramuscularly injected again into the same region by the same method. At 7 or 8 days after the second administration of acidic saline, induction of mechanical allodynia was confirmed by measuring withdrawal (avoidance response) thresholds to mechanical stimulation on the right hind paw, and rats with a mechanical withdrawal (avoidance response) threshold of less than 4.5 g were used for the evaluation of the test drug (Sluka K A et. al., Unilateral intramuscular injections of acidic saline produce a bilateral, long-lasting hyperalgesia, Muscle Nerve. 2001).
The test compound was prepared as a solution using 30% PEG 400 and 70% distilled water on a volume basis. Each solution was administered intraperitoneally to the rats at a volume of 3 ml per kg of rat. Withdrawal (avoidance response) thresholds to mechanical stimulation were measured at 30 minutes, 1 hour, 2 hours and 4 hours after drug administration.
[% MPE=(threshold over time after drug treatment−threshold at 0 hour)/(threshold of normal group−threshold at 0 hour)×100]
The vehicle or the test compound was administered intraperitoneally at doses of 5, 10 and 20 mg/kg, and withdrawal thresholds to mechanical stimulation were measured at 30 minutes, 1 hour, 2 hours and 4 hours.

## NC(=O)O[C@@H](Cn1ncnn1)c1ccccc1Cl [Test compound]
5 mg/kg ip group, 0 h (pre-dose, after acidic saline)
  Withdrawal threshold of the right hind paw to mechanical stimulation (mean): 2.97 g
5 mg/kg ip group, baseline, prior to first injection of acidic saline (pre-dose)
  Withdrawal threshold of the right hind paw to mechanical stimulation (mean): 13.69 g
5 mg/kg ip, 30 min
  Effect (%) (% MPE, percent of maximum possible effect): 10.8%
5 mg/kg ip, 30 min after administration
  Withdrawal threshold of the right hind paw to mechanical stimulation (mean): 4.02 g
5 mg/kg ip, 1 h
  Effect (%) (% MPE, percent of maximum possible effect): 35.6%
5 mg/kg ip, 1 h after administration
  Withdrawal threshold of the right hind paw to mechanical stimulation (mean): 6.41^d g
5 mg/kg ip, 2 h
  Effect (%) (% MPE, percent of maximum possible effect): 38.3%
5 mg/kg ip, 2 h after administration
  Withdrawal threshold of the right hind paw to mechanical stimulation (mean): 6.67^e g
5 mg/kg ip, 4 h
  Effect (%) (% MPE, percent of maximum possible effect): 10.7%
5 mg/kg ip, 4 h after administration
  Withdrawal threshold of the right hind paw to mechanical stimulation (mean): 4.01 g
10 mg/kg ip group, 0 h (pre-dose, after acidic saline)
  Withdrawal threshold of the right hind paw to mechanical stimulation (mean): 3.20 g
10 mg/kg ip group, baseline, prior to first injection of acidic saline (pre-dose)
  Withdrawal threshold of the right hind paw to mechanical stimulation (mean): 14.29 g
10 mg/kg ip, 30 min
  Effect (%) (% MPE, percent of maximum possible effect): 11.4%
10 mg/kg ip, 30 min after administration
  Withdrawal threshold of the right hind paw to mechanical stimulation (mean): 4.27 g
10 mg/kg ip, 1 h
  Effect (%) (% MPE, percent of maximum possible effect): 47.5%
10 mg/kg ip, 1 h after administration
  Withdrawal threshold of the right hind paw to mechanical stimulation (mean): 7.68^e g
10 mg/kg ip, 2 h
  Effect (%) (% MPE, percent of maximum possible effect): 43.5%
10 mg/kg ip, 2 h after administration
  Withdrawal threshold of the right hind paw to mechanical stimulation (mean): 7.30^e g
10 mg/kg ip, 4 h
  Effect (%) (% MPE, percent of maximum possible effect): 11.3%
10 mg/kg ip, 4 h after administration
  Withdrawal threshold of the right hind paw to mechanical stimulation (mean): 4.26 g
10 mg/kg
  Area under the curve of the paw withdrawal threshold curve over time, compared with the vehicle group: statistically significant effects
20 mg/kg ip group, 0 h (pre-dose, after acidic saline)
  Withdrawal threshold of the right hind paw to mechanical stimulation (mean): 2.95 g
20 mg/kg ip group, baseline, prior to first injection of acidic saline (pre-dose)
  Withdrawal threshold of the right hind paw to mechanical stimulation (mean): 13.83 g
20 mg/kg ip, 30 min
  Effect (%) (% MPE, percent of maximum possible effect): 44.6%
20 mg/kg ip, 30 min after administration
  Withdrawal threshold of the right hind paw to mechanical stimulation (mean): 7.28^d g
20 mg/kg ip, 1 h
  Effect (%) (% MPE, percent of maximum possible effect): 73.2%
20 mg/kg ip, 1 h after administration
  Withdrawal threshold of the right hind paw to mechanical stimulation (mean): 10.04^e g
20 mg/kg ip, 2 h
  Effect (%) (% MPE, percent of maximum possible effect): 82.2%
20 mg/kg ip, 2 h after administration
  Withdrawal threshold of the right hind paw to mechanical stimulation (mean): 10.92^e g
20 mg/kg ip, 4 h
  Effect (%) (% MPE, percent of maximum possible effect): 16.2%
20 mg/kg ip, 4 h after administration
  Withdrawal threshold of the right hind paw to mechanical stimulation (mean): 4.52 g
20 mg/kg
  Area under the curve of the paw withdrawal threshold curve over time, compared with the vehicle group: statistically significant effects
5, 10 and 20 mg/kg ip, dose dependence
  Area under the curve of the paw withdrawal threshold curve over time: dose-dependent effect
dose-dependent manner
  Muscle mechanical hyperalgesia in the chronic myalgia model: significantly reduces
Intraperitoneally at doses of 5, 10 and 20 mg/kg
  Mechanical allodynia induced by repeated injections of acidic saline: significantly inhibited
Overall conclusion
  Effect in the fibromyalgia disease model: significant effect
